Measurements reported in patent US10588978B2, “Pharmaceutical composition containing imidazoline derivative” (priority 2016, dated 2020).
Where two headings read alike, the source gives them in different places.

Key:
[1] = system: AIPC; details: mouse; cited from earlier work
[2] = system: tumor cell growth; details: cited from earlier work
[3] = system: AIPC; details: human; cited from earlier work
[4] = mice; relative to MDV-3100; cited from earlier work
[5] = Solubility of the compound in compositions with conventional auxiliaries; type: physicochemical
[6] = molecular target: T1, AR (Homo sapiens, UniProt P10275); details: cited from earlier work
T1 sequence (P10275 1-920): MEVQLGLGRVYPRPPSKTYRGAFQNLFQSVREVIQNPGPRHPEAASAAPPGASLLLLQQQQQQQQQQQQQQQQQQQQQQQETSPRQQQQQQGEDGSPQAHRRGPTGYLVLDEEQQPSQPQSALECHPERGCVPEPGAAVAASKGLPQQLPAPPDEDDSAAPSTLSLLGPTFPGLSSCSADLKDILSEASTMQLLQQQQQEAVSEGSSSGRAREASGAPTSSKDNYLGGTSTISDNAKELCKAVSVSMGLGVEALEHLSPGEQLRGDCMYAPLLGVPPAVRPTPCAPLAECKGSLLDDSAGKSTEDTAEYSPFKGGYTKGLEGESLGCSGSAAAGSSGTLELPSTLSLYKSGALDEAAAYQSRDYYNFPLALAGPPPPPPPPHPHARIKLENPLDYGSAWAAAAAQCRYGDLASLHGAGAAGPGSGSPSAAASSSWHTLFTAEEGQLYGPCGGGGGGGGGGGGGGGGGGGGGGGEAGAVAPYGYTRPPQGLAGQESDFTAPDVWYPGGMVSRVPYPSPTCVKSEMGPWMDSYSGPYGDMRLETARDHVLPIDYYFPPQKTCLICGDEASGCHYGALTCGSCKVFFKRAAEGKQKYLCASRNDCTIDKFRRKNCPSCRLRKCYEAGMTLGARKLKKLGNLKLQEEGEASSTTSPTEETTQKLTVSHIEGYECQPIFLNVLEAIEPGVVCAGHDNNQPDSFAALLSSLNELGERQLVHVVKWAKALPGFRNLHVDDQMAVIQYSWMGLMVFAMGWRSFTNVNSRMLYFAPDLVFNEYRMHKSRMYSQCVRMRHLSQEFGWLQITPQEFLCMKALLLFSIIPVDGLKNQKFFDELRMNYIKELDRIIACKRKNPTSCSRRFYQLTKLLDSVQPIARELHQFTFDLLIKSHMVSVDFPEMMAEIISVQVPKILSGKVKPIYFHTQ

[7] = molecular target: T1, AR; details: cited from earlier work; remark: listed apart in the source
[8] = same dose, same solvent; cited from earlier work
[9] = same dose, same solvent; cited from earlier work; remark: listed apart in the source
[10] = Studies on stability of the compound; type: physicochemical
[11] = system: five major subtypes of CYP450; details: all five subtypes; read-out: inhibition half lives on five major subtypes of CYP450; cited from earlier work

Row | SMILES | inhibition of growth of AIPC [1] | effect of promoting tumor cell growth [2] | inhibition of growth of AIPC [3] | ratio of the drug concentration in brain tissue to the drug concentration in plasma [4] | solubility in compositions prepared with conventional auxiliaries [5] | AR agonist activity ([6]; at 3 μM) | AR agonist activity ([6]; at 10 μM) | activity in vitro relative to MDV-3100 [7] | in vivo exposure in dogs relative to MDV-3100 [8] | in vivo exposure in rats relative to MDV-3100 [9] | stability of the compound [10] | IC50 [11]
1 | CNC(=O)c1ccc(N2C(=S)N(c3ccc(C#N)c(C(F)(F)F)c3)C(=O)C2(C)C)cc1F [MDV-3100] | can inhibit the growth of AIPC | no effect of promoting tumor cell growth | can inhibit the growth of AIPC | – | – | – | – | – | – | – | – | –
2 | CC1(C)C(=O)N(c2ccc(C#N)c(C(F)(F)F)c2)C(=S)N1c1ccc(OC[C@@H](O)CO)cc1 [compound of formula (I), (S)-4-(3-(4-(2,3-dihydroxypropoxy)phenyl)-4,4-dimethyl-5-carbonyl-2-thioimidazolin-1-yl)-2-(trifluoromethyl)benzonitrile] | – | – | – | much lower than that of MDV-3100 | poorly soluble | no AR agonist activity | no AR agonist activity | slightly better than that of MDV-3100 | more than six times that of MDV-3100 | comparable to that of MDV-3100 | poor stability | > 50 µM
